Holding throughout (assay): Laboratory bioactivity efficacy test 2.1 (foliar spray)
Assay type in all cases: in vivo
Common to all, as to details: for GR50 / GR90: fresh weight control efficacy 14 days after application

The test system of one test is Setaria viridis. The source says: (§1) Refer to the “Pesticides guidelines for laboratory bioactivity tests Part 4: Foliar spray application test for herbicide activity, NY/T 1155.4-2006”.
(§2) • grassy weeds: Setaria viridis, Chloris virgata; • sedge: Cyperus rotundus; • Broadleaf weeds: Amaranthus retroflexus, Chenopodium album, Acalypha australis, Commelina communis, Convolvulus arvensis, Cirsium setosum, and Eclipta prostrata. 2.1.3 Test Conditions
(§3) The soil used for the test was a mixture of surface 20 cm loam and vermiculite, mixed in a volume ratio of 3:1 to form a culture soil. The test corn was cultured in a glass greenhouse with a temperature ranging from 25° C. to 35° C. and under natural light.
(§4) A measured quantity of weed seeds were sown in plastic pots with a diameter of 9 cm, and covered with 1-2 mm of soil. The ports were then placed in enamel trays filled with water, and watered by bottom irrigation. After sowing, the pots were transferred to the glass greenhouse for cultivation and growth.
(§5) Five dosages were set for Compound I, Compound II and the control herbicide Topramezone, which were 3.75, 7.5, 15, 30 and 60 grams of active ingredient per hectare respectively. In addition, a blank control was also prepared.
(§6) The required amount of the herbicide was accurately measured out, an appropriate amount of emulsifier and organic solvent were added to dissolve the herbicide, and then a certain amount of water was added therein until the herbicide was diluted to the required dosage by using the serial dilution method for standby.
(§7) The fresh weight of each treatment was surveyed 14 days after the application of the herbicide. The fresh weight control efficacy was calculated according to the following formula: fresh weight control efficacy (%)=(control fresh weight−treatment fresh weight)/control fresh weight×100.
(§8) A DPS statistical software was used to conduct regression analysis on the logarithmic values of the herbicide dosage and the probit values of the corn fresh weight control efficacy, and the correlation coefficient, GR50, GR90, and the 95% confidence interval were calculated.

For another test, the system named is Commelina communis.
Description: as §1, §2, §3, §4, §5, §6, §7, §8

The next test concerns Acalypha australis.
Description: as §1, §2, §3, §4, §5, §6, §7, §8

The subject of a further test is Chloris virgata.
Description: as §1, §2, §3, §4, §5, §6, §7, §8

In a further test the test system is Chenopodium album.
Description: as §1, §2, §3, §4, §5, §6, §7, §8

The next test deals with Eclipta prostrata.
Description: as §1, §2, §3, §4, §5, §6, §7, §8

For a further test, the system named is Convolvulus arvensis.
Description: as §1, §2, §3, §4, §5, §6, §7, §8

The subject of another test is Cirsium setosum.
Description: as §1, §2, §3, §4, §5, §6, §7, §8

The text below walks through data of patent US12550899B2, “Topramezone derivative and use thereof” (priority 2023, dated 2026).

SMILES strings stand for the structures.

For the compound `COC(=O)OC(C)Oc1c(C(=O)c2ccc(S(C)(=O)=O)c(C3=NOCC3)c2C)cnn1C` (stereo not shown) [Compound I, 1-((4-(3-(4,5-dihydroisoxazol-3-yl)-2-methyl-4-(methylsulfonyl)benzoyl)-1-methyl-1H-pyrazol-5-yl)oxy)ethyl methyl carbonate], the “Control efficacy compared with Topramezone (in words)” value is on record as “better control efficacy” in the test with Setaria viridis; “significantly better control efficacy” with Commelina communis; “significantly better control efficacy” with Acalypha australis; “better control efficacy” in the test with Chloris virgata; “significantly better control efficacy” in the test with Chenopodium album; “significantly better control efficacy” in the test with Eclipta prostrata. In addition, the “Control efficacy compared with Topramezone (in words)” value in the test with Convolvulus arvensis and in the test on Cirsium setosum was “significantly better control efficacy” each time. In addition, the “Efficacy relative to that of Topramezone” value in the test with Setaria viridis is given as “approximately 1.5 times”; with Commelina communis, “approximately 2 times”; with Acalypha australis it was “approximately 2 times”; with Chloris virgata, “approximately 1.5 times”; in the test with Chenopodium album it was “approximately 2 times”; in the test on Eclipta prostrata, “approximately 2 times”. The “Efficacy relative to that of Topramezone” value in the test with Convolvulus arvensis and in the test on Cirsium setosum was “approximately 2 times” each time. The GR50 in the test on Setaria viridis stood at 3.96 g a.i./ha; in the test with Commelina communis, 4.98 g a.i./ha; with Acalypha australis, 2.42 g a.i./ha; in the test on Chloris virgata, 2.25 g a.i./ha; in the test on Chenopodium album, 1.22 g a.i./ha; with Eclipta prostrata, 2.30 g a.i./ha. The GR50 stood at 1.81 g a.i./ha with Convolvulus arvensis and 5.56 g a.i./ha in the test on Cirsium setosum. For the same compound, the GR90 with Setaria viridis is reported as 11.42 g a.i./ha; with Commelina communis, 16.38 g a.i./ha; in the test on Acalypha australis, 7.55 g a.i./ha; in the test on Chloris virgata, 10.81 g a.i./ha; in the test on Chenopodium album, 5.98 g a.i./ha; with Eclipta prostrata, 11.62 g a.i./ha. Further, the values for the GR90 in the test with Convolvulus arvensis and in the test on Cirsium setosum were 31.82 g a.i./ha and 20.60 g a.i./ha, respectively.

Take `Cc1c(C(=O)c2cnn(C)c2OC(=O)C(C)(C)C)ccc(S(C)(=O)=O)c1C1=NOCC1` [Compound II, 4-(3-(4,5-dihydroisoxazol-3-yl)-2-methyl-4-(methylsulfonyl)benzoyl)-1-methyl-1H-pyrazol-5-yl pivalate]: the GR50 in the test with Setaria viridis amounted to 6.77 g a.i./ha; with Commelina communis, 13.73 g a.i./ha; with Acalypha australis, 6.04 g a.i./ha; in the test on Chloris virgata it was 4.41 g a.i./ha; in the test with Chenopodium album, 2.83 g a.i./ha; in the test with Eclipta prostrata it was 4.67 g a.i./ha. Further, the figures for the GR50 in the test with Convolvulus arvensis and in the test with Cirsium setosum were 7.31 g a.i./ha and 15.14 g a.i./ha, respectively. Also, the GR90 in the test with Setaria viridis amounted to 19.04 g a.i./ha; with Commelina communis, 39.85 g a.i./ha; in the test with Acalypha australis, 16.46 g a.i./ha; in the test on Chloris virgata, 15.22 g a.i./ha; with Chenopodium album, 11.74 g a.i./ha; with Eclipta prostrata, 23.27 g a.i./ha. The GR90 stood at 58.43 g a.i./ha in the test on Convolvulus arvensis and 48.92 g a.i./ha in the test with Cirsium setosum.

As for `Cc1c(C(=O)c2cnn(C)c2O)ccc(S(C)(=O)=O)c1C1=NOCC1` [Topramezone], the GR50 in the test on Setaria viridis is listed as 6.72 g a.i./ha; with Commelina communis it was 14.38 g a.i./ha; in the test with Acalypha australis it was 5.27 g a.i./ha; in the test with Chloris virgata it was 3.33 g a.i./ha; in the test on Chenopodium album, 3.22 g a.i./ha; in the test on Eclipta prostrata, 6.33 g a.i./ha. The figures for the GR50 in the test on Convolvulus arvensis and with Cirsium setosum were 4.63 g a.i./ha and 15.89 g a.i./ha, respectively. For the same compound, the GR90 is listed as 19.16 g a.i./ha with Setaria viridis; 40.29 g a.i./ha in the test with Commelina communis; 16.92 g a.i./ha with Acalypha australis; 15.81 g a.i./ha in the test with Chloris virgata; 12.76 g a.i./ha with Chenopodium album; 23.72 g a.i./ha in the test on Eclipta prostrata. The GR90 with Convolvulus arvensis worked out at 66.46 g a.i./ha; with Cirsium setosum, 49.41 g a.i./ha.
